Assay [1] deals with D24 human melanoma cells. The experiment in a line: Crystal violet (CV) cell viability assay. The format is cell-based. The following applies: Homo sapiens, 24 h exposure, read-out: IC50 (μg/ml) [Mean, Range] D24, CV. As to the method: (§1) Cells were seeded into the 96-well cell culture plates in 100 μl of complete culture medium at the initial density of 2x10^4 (cells/ml). Cells were incubated under 5 % CO2 at 37 °C for 24 hours for adhering to the wells and medium was then replaced with 100 μl of fresh medium containing excipient solution at the required final concentration. Each concentration was tested in minimum of 5 replicates and control cells were exposed to the culture medium only. Fixed cells were stained with crystal violet dye solution to screen cell viability under treatment conditions. Cells are fixed by 4 % (v/v) paraformaldehyde in PBS for 10 minutes. Crystal violet assay of 0.05 % (v/v) is prepared by 1:4 dilution of the crystal violet stock solution (v/v) in 4 % (v/v) paraformaldehyde. The fixed cells were washed twice with PBS and covered with 250 µl crystal violet working solution. The plates were placed on a bench rocker with medium frequency (20 oscillations per minute) at room temperature for 20 minutes. The plates were emptied and washed under indirect stream of tap water for three times and inverted on filter paper. The plates were taped gently on the paper to remove any remaining liquid and air dried with no lid for minimum of 2 hr at room temperature. After the plates were photographed, blue dye was dissolved in DMSO and the optical density of each well was measured at 570 nm (OD570) with a plate reader (Multiskan™ FC Microplate Photometer). The effect of each treatment was calculated as the percentage of crystal viable staining of surviving attached cells, against the negative control (cells treated with culture medium only). To assess the excipients' cytotoxicity, the dose-response effect of each excipient was measured against the cell lines. The cytotoxicity value for each concentration of the excipients was expressed as percentage of viability against the untreated control wells (the optical density of untreated cells was set at 100 % viability) to construct dose-response curves. […] All IC50 values were expressed as µg/ml. The percentage viability was calculated as follows: […]

Assay [2] deals with HaCaT human keratinocytes. The experiment in a line: Crystal violet (CV) cell viability assay. The format is cell-based. The settings on record: Homo sapiens, 24 h exposure, read-out: IC50 (μg/ml) [Mean, Range] HaCaT, CV. The method, then: as §1
Assay [3] deals with WM1366 human melanoma cells. The experiment in a line: Crystal violet (CV) cell viability assay. The settings on record: Homo sapiens, 24 h exposure, read-out: IC50 (μg/ml) [Mean, Range] WM1366, CV. The format is cell-based. As to the method: as §1
In assay [4] the test system is WM164 human melanoma cells. The experiment in a line: Crystal violet (CV) cell viability assay. The format is cell-based. The following applies: Homo sapiens, 24 h exposure, read-out: IC50 (μg/ml) [Mean, Range] WM164, CV. As to the method:
as §1

The subject of assay [5] is primary skin fibroblasts (FB). The experiment in a line: Crystal violet (CV) cell viability assay. The format is cell-based, human. The following applies: Homo sapiens, Skin fibroblast, 24 h exposure, read-out: IC50 (μg/ml) [Mean, Range] FB, CV. As to the method: as §1
In assay [6] the test system is D24 human melanoma cells. Briefly: Trypan blue (TB) exclusion assay, membrane integrity. The format is cell-based. The settings on record: 24 h exposure, read-out: IC50 (μg/ml) D24, TB. The method, then:
(§2) The dye exclusion test is routinely applied in laboratories to assess the number of live cells present in a cell suspension. […] In this assay a cell suspension is mixed with dye and then visualized to distinguish the cells that take up dye from the ones that exclude it. Viable cells will be seen as a clear cytoplasm whereas a dead cell will appear with a blue cytoplasm (Strober, 2001[86]). After cell incubation for 24 h, the excipient-containing medium was removed, and cells were trypsinized using trypsin-EDTA to obtain cell suspension. 20 µl of trypan blue dye was mixed thoroughly with 20 µl cell suspension by pipetting ups and downs and loaded into the cell counting slide. Cell numbers were detected by the automated cell counting machine. To find the total number of viable cells in one ml of aliquot, the number of viable cells was multiplied by 2 (the dilution factor for trypan blue). Viable cell percentage was calculated as follows: […]

Assay [7] deals with HaCaT human keratinocytes. The assay is described as above. The format is cell-based. The following applies: 24 h exposure, read-out: IC50 (μg/ml) HaCaT, TB. The method, then:
as §2

Assay [8] has as its system WM1366 human melanoma cells. The assay is described as above. The format is cell-based. The settings on record: 24 h exposure, read-out: IC50 (μg/ml) WM1366, TB. The method, then:
as §2

Assay [9] relates to WM164 human melanoma cells. The assay is described as above. The format is cell-based. The settings on record: 24 h exposure, read-out: IC50 (μg/ml) WM164, TB. As to the method: as §2
The subject of assay [10] is primary skin fibroblasts (FB). The description is as above. The format is cell-based. The settings on record: Homo sapiens, Skin fibroblast, 24 h exposure, read-out: IC50 (μg/ml) FB, TB. As to the method: as §2

Molecules are shown by their SMILES. In brackets after ≈: the same amount, converted by molar mass.

Turning to `CCOCCOCCO` [Transcutol®, diethylene glycol monoethyl ether], the IC50 was found to be 5.01 µg/mL (≈ 37.3 µM) in assay [1]; 2.91 µg/mL (≈ 21.7 µM) in assay [2]; 3.55 µg/mL (≈ 26.5 µM) in [3]; 2.03 µg/mL (≈ 15.1 µM) in [4]; 5.97 µg/mL (≈ 44.5 µM) in assay [5]; 21.6 µg/mL (≈ 161 µM) in assay [6]. Moreover, the IC50 in [7] stood at 6.57 µg/mL (≈ 49 µM); in assay [8], 13.7 µg/mL (≈ 102 µM); in [9], 14.6 µg/mL (≈ 108 µM); in assay [10], 7.08 µg/mL (≈ 52.8 µM).

The record behind these values is paper PMC10776879, “In vitro screening of topical formulation excipients for epithelial toxicity in cancerous and non-cancerous cell lines” (EXCLI Journal, 2023).
